Measured values: US6509011B1, “Method of hair treatment using organic amino compounds” (Unilever Home & Personal Care USA, division of Conopco, Inc., priority 1999, dated 2003)

Assay: Cuticle abrasion of treated hair switches
Description: Cuticle abrasion and sensory experiments were performed on bleached hair with unbleached “virgin” hair as a control.
A shampoo base was used to treat hair switches:
Two samples of the above formulation were prepared, with the addition of 0.2% arginine to one of the samples.
Four sets of switches were used and treated as follows:
Set 1. Bleached switches washed 6 times in base, with final base wash containing 0.2% arginine.
Set 2. Bleached switches based washed 6 times in base with 0.2% arginine
Set 3. Bleached switches washed 6 times in base without 0.2% arginine
Set 4. Unbleached virgin hair washed in base without arginine.
The treated samples were subjected to cuticle abrasion (in duplicate).

For `N=C(N)NCCC[C@H](N)C(=O)O` [arginine], the “cuticle cohesion after cuticle abrasion” value (set 1: bleached switches washed 6 times in base, only final wash containing 0.2% arginine) was “evidence of improved cuticle cohesion”, the “amount of cuticle removed by abrasion” value (set 1: bleached switches washed 6 times in base, only final wash containing 0.2% arginine, compared with set 3 (no arginine)) was “Significantly less cuticle was removed than set 3” and the “removed cuticle sample size and appearance” value (set 2: bleached switches washed 6 times in shampoo base with 0.2% arginine) was “closer in sample size and appearance to the unbleached sample”. The “cuticle cohesion after cuticle abrasion” value (set 2: bleached switches washed 6 times in shampoo base with 0.2% arginine, compared with set 3 (base without arginine)) was “significantly better cuticle cohesion”.
